Source: patent publication US20150250786A1, “PYRIMIDINE HYDROXY AMIDE COMPOUNDS AS PROTEIN DEACETYLASE INHIBITORS AND METHODS OF USE THEREOF” (THE TRUSTEES OF THE UNIVERSITY OF PENNSYLVANIA, priority 2012, published 2015)

Columns and labels:
HDAC1 = HDAC1 (Homo sapiens, UniProt Q13547); test: HDAC enzyme assay, HDAC1; details: selectivity HDAC6 over HDAC1
HDAC2 = HDAC2 (Homo sapiens, UniProt Q92769); test: HDAC enzyme assay, HDAC2; details: selectivity HDAC6 over HDAC2
HDAC3 = HDAC3 (Homo sapiens, UniProt O15379); test: HDAC enzyme assay, HDAC3; details: selectivity HDAC6 over HDAC3
Sequence of HDAC3 (O15379 whole entry): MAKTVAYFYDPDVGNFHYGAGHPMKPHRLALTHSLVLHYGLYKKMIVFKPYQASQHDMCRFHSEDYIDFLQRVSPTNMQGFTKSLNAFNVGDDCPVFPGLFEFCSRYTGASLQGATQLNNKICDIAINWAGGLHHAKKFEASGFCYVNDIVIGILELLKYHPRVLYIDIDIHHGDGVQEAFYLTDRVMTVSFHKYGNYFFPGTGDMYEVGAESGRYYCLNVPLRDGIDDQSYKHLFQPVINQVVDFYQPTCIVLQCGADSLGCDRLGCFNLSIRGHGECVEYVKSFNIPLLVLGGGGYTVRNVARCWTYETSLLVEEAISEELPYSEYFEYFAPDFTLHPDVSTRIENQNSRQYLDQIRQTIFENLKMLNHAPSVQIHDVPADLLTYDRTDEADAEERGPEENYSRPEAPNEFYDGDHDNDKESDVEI
Sequence of HDAC3 (Q9Y618 395-489 partner limits assumed): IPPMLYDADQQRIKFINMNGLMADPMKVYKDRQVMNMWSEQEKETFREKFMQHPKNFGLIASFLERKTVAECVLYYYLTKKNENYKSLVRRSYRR

[1] = test system: RN46A-B14 serotonergic cell line; test: α-tubulin K40 acetylation in RN46A-B14 cells (Western blot); assay type: cell-based, rat; details: for acetylated (lysine 40) fraction of α-tubulin: 4 hours, TSA 0.6 μM, others 2.5 μM
Method: In FIG. 3, it was observed that subchronic treatment, consisting of 5 treatments at 48, 28, 24, 4 and ½ hours before sacrifice, led to greater increase in tubulin acetylation than did chronic treatment of 1 injection/day for 21 days. For cell culture, RN46B cells were treated for with 0.25, 2.5 or 25 μM drug in DMSO for 1, 4 or 24 hours as indicated. Tukey post-hoc analysis: * P=0.01 to 0.05, ** P=0.001-0.01, ***P<0.001 when compared with vehicle treatment.
Results are shown as percent change normalized to the vehicle treatment condition. The horizontal hard line depicts average and the dotted lines depict SEM of the vehicle treated wells. Representative Western blot images are presented. […] Representative Western blot images are presented. […] The drugs (5 mg/kg) were administered subchronically (at 24 h, 4 h and 30 min prior to sacrifice) to HDAC6 KO and WT littermates. The changes in tubulin acetylation were measured in tissue lysates from cortex (ctx), hippocampus (Hpc), dorsal Raphe nucleus (DRN) and cerebellum (cb). The tubulin acetylation levels in drug-treated mice are expressed as percent change of the vehicle-treated mice of the corresponding genotype. The horizontal lines depict the average tubulin acetylation±SEM in the vehicle treated mice. The representative Western blot images show the changes induced by each drug treatment in the hippocampus (left column) and dorsal raphe (right column) of WT and HDAC6 KO mice.
In contrast to the class I isoforms HDAC2 and 3, which are expressed highly and ubiquitously in the mouse brain, HDAC6 mRNA expression appears to be restricted to a small number of brain areas, with highest signal observed in DRN (FIG. 13f). […] No changes in total α-tubulin expression were detected (FIG. 14a).

[2] = test system: RN46A-B14 serotonergic cell line; test: Histone H3K9 acetylation in RN46A-B14 cells (Western blot); assay type: cell-based, rat; details: 4 hours
[3] = test system: α-tubulin acetylation in mouse whole brain lysates; test: α-tubulin acetylation in whole brain lysates after single i.p. administration; assay type: in vivo; details: compound 73 5 mg/kg, compound 101 50 mg/kg, tubastatin A 10 mg/kg, 30 min, 1 h, 4 h
[4] = test system: α-tubulin acetylation in heart; test: α-tubulin acetylation in heart after single systemic administration; assay type: in vivo, mouse; details: 10 mg/kg
Method: The changes were significant at 30 minutes (F3,13=163.4, P<0.0001), 1 hour (F3,13=163.9, P<0.0001) and 4 hours (F3,14=4.703, P=0.0179) after the administrations.

mice [5] = test: Open-field test; assay type: in vivo, mouse; details: acute; compounds 73, 101 50 mg/kg; tubastatin A 10 mg/kg
[6] = Pharmacokinetics and brain bio-distribution in mice; assay type: in vivo, mouse
Method: […] Plasma samples were taken from all mice upon sacrifice. Brain samples were taken from the mice sacrificed at 5 and 15 minutes and 1 and 4 hours. The brain samples were homogenized in PBS and centrifuged at 14000 rpm for 5 minutes. The supernatant from the brain homogenate and the plasma samples were injected onto a LC/MS/MS for analysis. The compound level in the samples was determined by a standard curve in the appropriate matrix. Pharmacokinetic parameters were determined from the raw data by WinNonLin.

[7] = test system: histone H3 lysine 9 acetylation; test: Histone H3K9 acetylation in vivo (Western blot, ChIP); design: species or system mouse; details: hippocampus; repeated i.p.; compound 73 5 mg/kg, sodium butyrate 1.2 g/kg
mice [8] = test: Elevated plus maze (EPM); assay type: in vivo, mouse; details: acute administration
mice [9] = test: Chronic social defeat (CSD) and social interaction test; assay type: in vivo, mouse; details: after CSD; fluoxetine 20 mg/kg, compound 73 5 mg/kg, compound 101 50 mg/kg
Method: Additionally, when combined with a dose of Citalopram with lower activity, these compounds seemed to have an additive effect (See FIG. 10). The dose of Citalopram chosen for this experiment was based on literature stating 2 mg/kg should be subactive, but this dose was found still showing an effect. Mice then underwent chronic social defeat stress, in which the mice are exposed to an aggressive resident mouse for 5 minutes daily for 10 days and are then tested on the 11th day in the social interaction test. Mice treated with vehicle for 20 total days, beginning 10 days before the defeat, show reduced time spent in the interaction zone when a target mouse is present when compared with control mice. […] The percent of mice found to be resilient, defined as spending more time in the interaction zone than the lowest control (i.e. ˜52 s), is higher in HDAC6 inhibitor groups. All behavior testing done using NIH Swiss mice, age 6-10 weeks. Tukey post-hoc analysis: * P=0.01 to 0.05, ** P=0.001-0.01, ***P<0.001 compared with vehicle treated mice.
The effects were observed 30 minutes after acute 50 mg/kg i.p. injection, but not for the lower dose (5 mg/kg). Combination of subactive doses of the HDAC6 selective inhibitors (5 mg/kg) and citalopram (0.5 mg/kg) produced robust potentiation of anti-immobility activity (n=8-29 per condition). […] No difference was observed between HDAC6 WT and KO when treated with the vehicle (n=6-15 per condition). FIG. 16c is a timeline showing treatment period, social defeat and social interaction (SI) testing.
A pro-resilient phenotype in the mouse CSD paradigm after serotonin-selective KO of HDAC6 was previously reported (Espallergues et al, 2012). Whether a chronic pharmacological inhibition of HDAC6 can replicate that phenotype is studied. […] On day 21, 24 h after the last injection, the mice were tested in the social interaction test. […] Significant effects were also observed when data was evaluated in terms of proportion of mice reaching criterion for resiliency.

Sequence of HDAC1 (Q13547 whole entry): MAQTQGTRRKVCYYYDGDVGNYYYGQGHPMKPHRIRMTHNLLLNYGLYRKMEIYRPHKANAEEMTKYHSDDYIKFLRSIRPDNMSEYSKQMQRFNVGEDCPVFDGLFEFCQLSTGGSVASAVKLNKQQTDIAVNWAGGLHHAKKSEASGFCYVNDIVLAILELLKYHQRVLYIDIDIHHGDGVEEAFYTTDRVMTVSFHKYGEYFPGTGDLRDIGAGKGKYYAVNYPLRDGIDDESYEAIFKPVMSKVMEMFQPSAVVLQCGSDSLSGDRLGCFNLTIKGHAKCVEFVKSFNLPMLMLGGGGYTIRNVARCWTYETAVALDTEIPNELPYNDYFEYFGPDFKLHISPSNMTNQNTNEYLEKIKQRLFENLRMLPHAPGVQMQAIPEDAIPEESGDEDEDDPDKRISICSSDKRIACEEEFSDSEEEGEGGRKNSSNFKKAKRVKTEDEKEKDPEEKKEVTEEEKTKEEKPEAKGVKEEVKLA
Sequence of HDAC2 (Q92769 whole entry): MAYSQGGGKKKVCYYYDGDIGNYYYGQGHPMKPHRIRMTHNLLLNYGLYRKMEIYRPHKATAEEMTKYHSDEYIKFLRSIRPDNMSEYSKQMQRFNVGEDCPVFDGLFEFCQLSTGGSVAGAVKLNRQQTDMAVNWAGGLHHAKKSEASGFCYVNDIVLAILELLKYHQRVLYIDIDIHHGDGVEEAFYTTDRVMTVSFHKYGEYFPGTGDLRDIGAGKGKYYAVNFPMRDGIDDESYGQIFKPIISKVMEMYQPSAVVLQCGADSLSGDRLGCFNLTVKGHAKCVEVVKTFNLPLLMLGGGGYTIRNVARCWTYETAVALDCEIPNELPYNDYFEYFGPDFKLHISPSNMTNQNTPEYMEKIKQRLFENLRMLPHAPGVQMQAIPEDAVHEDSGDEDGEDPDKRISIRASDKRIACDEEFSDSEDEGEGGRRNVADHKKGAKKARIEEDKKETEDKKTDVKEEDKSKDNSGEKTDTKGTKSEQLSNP

SMILES	HDAC1 fold versus HDAC6 (in brackets) (HDAC1)	HDAC2 fold versus HDAC6 (in brackets) (HDAC2)	HDAC3 fold versus HDAC6 (in brackets) (HDAC3)	other results
O=C(NO)c1cnc(NC2(c3ccccc3C(F)(F)F)CC2)nc1 [Compound 91]	(72.3x)	(130.2x)	(169.4x)	
O=C(NO)c1cnc(NC2(c3ccccc3)CCCCC2)nc1 [Compound 84]	(302.2x)	(403.4x)	(613x)	
CC(/C=C/C(=O)NO)=C\[C@@H](C)C(=O)c1ccc(N(C)C)cc1 [TSA, trichostatin A, reference compound]				acetylated (lysine 40) fraction of α-tubulin [1]: increases; increase in acetylation of histone H3 at lysine 9 ([2]; TSA 0.6 μM): 94%
CN1CCc2c(c3ccccc3n2Cc2ccc(C(=O)NO)cc2)C1 [Tubastatin A, reference compound]				increase in α-tubulin acetylation in tissue culture [1]: about 400%; acetylated (lysine 40) fraction of α-tubulin [1]: increases; change in histone H3K9 acetylation ([2]; 2.5 μM): no significant change; α-tubulin acetylation in whole brain lysates [3]: did not significantly change; increase of α-tubulin acetylation in heart [4]: 268%; exploratory activity in novel open-field arena (mice [5]): did not exhibit changes; 30 min plasma concentration (ng/ml) - 5 mg/kg ([6]; 5 mg/kg): 278 ng/mL; Cmax ([6]; mice, acute i.p. dosing): 496 ng/mL; T½ plasma ([6]; mice, acute i.p. dosing): 2 h; plasmatic half-life ([6]; mouse, in vivo): 2 h
O=C(NO)c1cnc(NC2(c3ccccc3)CCCC2)nc1 [Compound 88]	(215.2x)	(296.1x)	(679.1x)	
CCCC(=O)[O-].[Na+] [sodium butyrate, reference compound]				histone H3K9 acetylation enrichment at promoter DNA (cFOS, BDNF promoter 4), ChIP [7]: increases in enrichment
O=C(NO)c1cnc(NC2(c3ccc(F)cc3)CC2)nc1 [Compound 81]	(18.3x)	(30.2x)	(46.4x)	
COc1ccc(C2(Nc3ncc(C(=O)NO)cn3)CC2)cc1 [Compound 97]	(8.3x)	(12.1x)	(16.4x)	
O=C(NO)c1cnc(NC2(c3ccc(F)cc3)CCCCC2)nc1 [Compound 100]	(339.9x)	(504.7x)	(1428.4x)	
Cc1ccc(C2(Nc3ncc(C(=O)NO)cn3)CC2)cc1 [Compound 93]	(25.9x)	(34.7x)	(51x)	
CNC1=Nc2ccc(Cl)cc2C(c2ccccc2)=[N+]([O-])C1 [CDP, reference compound]				behavioral changes / time in the open arms of the maze (mice [8]): dramatically increased
CNCCC(Oc1ccc(C(F)(F)F)cc1)c1ccccc1 (stereo not drawn) [fluoxetine, reference compound]				percentage of resilient mice (mice [9]): 60%
O=C(NO)c1cnc(NC2(c3ccccc3Cl)CC2)nc1 [Compound 90]	(19.9x)	(26.2x)	(30.2x)	
